EC50 and IC50 data for 19 compounds are collected here from patent US5827849A, “Cyclic dericatives, pharmaceutical compositions containing these compounds and processes for preparing them” (Karl Thomae GmbH, priority 1993, dated 1998).

Experiment [1] has as its system Thrombocyte aggregation (collagen-induced). Description: Collagen-induced platelet aggregation in platelet-rich plasma (Born and Cross method). The conditions noted are these: Homo sapiens, 10 min, 10 minutes incubation at 37° C., read-out: Inhibition of platelet aggregation EC50. It is filed as cell-based. Here is the method:
2. Antithrombotic activity Thrombocyte aggregation is measured using the Born and Cross method (J. Physiol. 170: 397 (1964)) in platelet-rich plasma taken from healthy volunteers. To inhibit coagulation the blood is mixed with 3.14% sodium citrate in a ratio by volume of 1:10. Collagen-induced aggregation The pattern of the decrease in optical density of the platelet suspension is photometrically measured and recorded after the addition of the aggregation-triggering substance. The rate of aggregation is determined from the angle of inclination of the density curve. The point on the curve where there is maximum light transmittance is used to calculate the optical density. The amount of collagen used is as small as possible but sufficient to produce an irreversible reaction curve. Standard commercial collagen produced by Hormonchemie of Munich is used. Before the addition of the collagen the plasma is incubated for 10 minutes with the test substance at 37° C. From the measurements obtained, an EC50 is determined graphically, indicating a 50% change in the optical density in terms of the inhibition of aggregation. B. Antithrombotic effect Platelet aggregation is measured by the method of Born and Cross (J. Physiol. 170, 397 (1964)) in platelet-rich plasma from healthy test subjects. For anticoagulation, sodium citrate 3.14% is added to the blood in the ratio 1:10 by volume. Collagen-induced aggregation The course of the decrease in optical density of the platelet suspension is measured and recorded photometrically after addition of the aggregation-inducing substance. The rate of aggregation is established from the angle of inclination of the density plot. The point on the plot at which the transmission of light is a maximum is used to calculate the optical density. The amount of collagen is chosen to be as small as possible but sufficient for the reaction plot to have an irreversible course. The collagen commercially obtainable from Hormonchemie, Munich, is used. Before the addition of collagen the plasma is in each case incubated with the substance at 37° C. for 10 minutes. An EC50 which relates to a 50% change in the optical density in the sense of inhibition of aggregation is determined graphically from the measured results.

In another experiment the test system is Human thrombocytes. Description: Inhibition of the binding of 3H-BIBU 52 to human thrombocytes (platelets). To be noted: 20 minutes. Here is the method:
1. Inhibition of the binding of ^3 H-BIBU 52 to Human thrombocytes […] Case 5/1093-FL) and various concentrations of the test substance. The free and bound ligand are separated by centrifuging and quantitatively measured by scintillation counting. From the measurements obtained the inhibition of ^3 H-BIBU 52 binding caused by the test substance is determined. In order to do this, donor blood is taken from an anticubital vein and anti-coagulated with trisodium citrate (final concentration 13 mM). The blood is centrifuged for 10 minutes at 170×g and the supernatant platelet-rich plasma (PRP) is removed. The remaining blood is centrifuged vigorously once more in order to recover plasma. The PRP is diluted with autologous plasma 1:10. 750 μl are incubated for 20 minutes at ambient temperature with 50 μl of physiological saline solution, 100 μl of test substance solution, 50 μl of ^14 C-sucrose (3700 Bq) and 50 μl of ^3 H-BIBU 52 (final concentration: 5 nM). In order to measure the non specific binding, 5 μl of BIBU 52 (final concentration 30 μM) are used instead of the test substance. […] The pellet is dissolved in 500 μl of 0.2N NaOH, 450 μl are mixed with 2 ml of scintallator and 25 μl of 5N HCl, and measured. The residual plasma remaining in the pellet is determined from the ^14 C-content, and the bound ligand is determined from the ^3 H-measurement. After substracting the non specific binding, the pellet activity is plotted against the concentration of the test substance and the concentration for 50% inhibition of binding is determined. A. Inhibition of the binding of ^3 H-BIBU 52 to human platelets […] The free and bound ligand is separated by centrifugation and determined quantitatively by scintillation counting. The inhibition of ^3 H-BIBU 52 binding by the test substance is determined from the measurements. For this purpose, donor blood is taken from an antecubital vein and anticoagulated with trisodium citrate (final concentration 13 mM). The blood is centrifuged at 170×g for 10 minutes, and the supernatant platelet-rich plasma (PRP) is removed. The remaining blood is thoroughly centrifuged once again to obtain plasma. The PRP is diluted 1:10 with autologous plasma. […] are incubated with […] of physiological saline, […] of test substance solution, […] of ^14 C-sucrose (3700 Bq) and 50 ml of ^3 H-BIBU 52 (final concentration: 5 nM) at room temperature for 20 minutes. To measure the nonspecific binding, 5 ml of BIBU 52 (final concentration: […]) are used in place of the test substance. […] The pellet is dissolved in 500 ml of 0.2N NaOH, and 450 ml are mixed with 2 ml of scintillator and 25 ml of 5N HCl and measured. The remaining plasma still present in the pellet is determined from the ^14 C content, and the bound ligand is determined from the ^3 H measurement. After subtraction of the nonspecific binding, the activity in the pellet is plotted against the concentration of test substance, and the concentration for 50% inhibition of binding is found.

[2] abbreviates: platelet-rich plasma of healthy volunteers, compounds of general formula I.
[3] abbreviates: human thrombocytes in plasma, 3H-BIBU 52 5 nM, ambient temperature, read-out: 3H-BIBU 52-binding test IC50.
Setting [4] is: platelet-rich plasma from healthy test subjects, compounds of general formula XXI.
The mark [5] stands for this setting: human platelets in plasma, 3H-BIBU 52 5 nM replaces 125I-fibrinogen, room temperature, read-out: Fibrinogen binding assay IC50.

Structures can show the parent of a compound that is named as a salt. Where two headings read alike, the source gives them in different places. Where only a bound is given, the exact number is not on record here.

For orientation: EC50 means the midpoint of the concentration-response curve. The IC50 is the concentration that gives 50% inhibition. Turning to `O=C(O)CCc1ccc(N2CCN([C@@H]3CC[C@H]4CNCC[C@@H]4C3)C2=O)cc1` (relative stereo) [9(1)], in experiment [1] (setting [2]), the EC50 came out at 990 nM. The IC50 with Human thrombocytes (setting [3]) was 760 nM.

`O=C(O)CCc1ccc(-n2ccn(-c3ccc4cnccc4c3)c2=O)cc1` [2(1), 1-[4-(2-carboxyethyl)phenyl]-3-(isoquinolin-6-yl)-3H-imidazol-2-one]: the EC50 in experiment [1] (setting [2]) is more than 10000 nM. In addition, the IC50 in the experiment with Human thrombocytes (setting [3]) was found to be 5400 nM.

Consider `O=C(O)CCc1ccc(N2CCN(c3ccc4c(c3)CCNC4)C2=O)cc1` [2(2), 1-[4-(2-carboxyethyl)phenyl]-3-(1,2,3,4-tetrahydroisoquinolin-6-yl)-imidazolidin-2-one], for which, in experiment [1] (setting [2]), the EC50 was determined as 40 nM. Moreover, the IC50 in the experiment on Human thrombocytes (setting [3]) was found to be 24 nM.

On to `CN1CCc2ccc(N3CCN([C@H]4CC[C@H](OCC(=O)O)CC4)C3=O)cc2CC1` [19(1), 1-[trans-4-[(carboxymethyl)oxy]cyclohexyl]-3-(3-methyl-2,3,4,5-tetrahydro-1H-3-benzazepin-7-yl)-imidazolidin-2-one-hydrochloride×NaCl×0.5H2 O], for which the concentration for a half-maximal effect (EC50) in experiment [1] (setting [2]) is 350 nM. In addition, the IC50 with Human thrombocytes (setting [3]) amounted to 120 nM.

Take `CN1CCc2ccc(N3CC(=O)N([C@H]4CC[C@H](CCC(=O)O)CC4)C3=O)cc2CC1` [19(3), 3-[trans-4-(2-carboxyethyl)cyclohexyl]-1-(3-methyl-2,3,4,5-tetrahydro-1H-3-benzazepin-7-yl)-hydantoin-hydrochloride]: the EC50 in experiment [1] (setting [2]) is 430 nM. Moreover, in the experiment with Human thrombocytes (setting [3]), the half-maximal inhibitory concentration (IC50) turned out to be 81 nM.

With `CCN1CCc2cc(N3CCN([C@H]4CC[C@H](CCC(=O)O)CC4)C3=O)cnc2CC1` [32 (1), 1-[trans-4-(2-Carboxyethyl)cyclohexyl]-3-(7-ethyl-6,7,8,9-tetrahydro-5H-pyrido[2,3-d]azepin-3-yl)imidazolidin-2-one×1 H2 O], the EC50 in experiment [1] (setting [4]) was 310 nM. In addition, the half-inhibitory concentration (IC50) in the experiment on Human thrombocytes (setting [5]) amounted to 250 nM.

In the case of `CCN1CCc2cnc(N3CCN(C4CCC(CCC(=O)O)CC4)C3=O)cc2CC1` (stereo not drawn) [32 (2), 1-[trans-4-(2-carboxyethyl)cyclohexyl]-3-(7-ethyl-6,7,8,9-tetrahydro-5H-pyrido[3,4-d]imidazolidin-2one], the EC50 in experiment [1] (setting [4]) is 2300 nM. Moreover, in the experiment on Human thrombocytes (setting [5]), the IC50 worked out at 1000 nM.

As for `O=C(O)CC[C@H]1CC[C@H](N2CCN(c3ccc4c(n3)CCNCC4)C2=O)CC1` [32 (3), 1-[trans-4-(2-Carboxyethyl)cyclohexyl]-3-(6,7,8,9-tetrahydro-5H-pyrido[2,3-d]azepin-2-yl)imidazolidin-2-one], in experiment [1] (setting [4]), the EC50 was 81 nM. In addition, in the experiment on Human thrombocytes (setting [5]), the IC50 was found to be 15 nM.

Regarding `O=C(O)CC[C@H]1CC[C@H](n2ccn(-c3cnc4c(n3)CCNCC4)c2=O)CC1` [32 (6), 1-[trans-4-(2-Carboxyethyl)cyclohexyl]-3-(6,7,8,9-tetrahydro-5H-pyrazino[2,3-d]azepin-2-yl)-3H-imidazol-2-one], the half-maximal effective concentration (EC50) in experiment [1] (setting [4]) was determined as 230 nM. For the same compound, in the experiment on Human thrombocytes (setting [5]), the IC50 was found to be 31 nM.

As to `CN1CCc2ccc(N3CCN([C@H]4CC[C@H](CCC(=O)O)CC4)C3=O)nc2CC1` [35 (1), 1-[trans-4-(2-Carboxyethyl)cyclohexyl]-3-(7-methyl-6,7,8,9-tetrahydro-5H-pyrido[2,3-d]azepin-2-yl)imidazolidin-2-one dihydrochloride×2H2 O], the half-maximal effective concentration (EC50) in experiment [1] (setting [4]) stood at 110 nM. Besides, the IC50 with Human thrombocytes (setting [5]) turned out to be 17 nM.

On to `CCN1CCc2ncc(N3CCN(c4ccc(OCC(=O)O)cc4)C3=O)nc2CC1` [36 (1), 1-[4-[(Carboxymethyl)oxy]phenyl]-3-(7-ethyl-6,7,8,9-tetrahydro-5H-pyrazino[2,3-d]azepin-2-yl)imidazolidin-2-one×1.75 HCl×H2 O], for which, in experiment [1] (setting [4]), the EC50 stood at 290 nM. Also, the IC50 in the experiment with Human thrombocytes (setting [5]) came to 77 nM.

For the compound `CN1CCc2ncc(N3CCN([C@H]4CC[C@H](OCC(=O)O)CC4)C3=O)nc2CC1` [36 (2), 1-[trans-4-[(Carboxymethyl)oxy]cyclohexyl]-3-(7-methyl-6,7,8,9-tetrahydro-5H-pyrazino[2,3-d]azepin-2-yl)imidazolidin-2-one dihydrochloride], in experiment [1] (setting [4]), the EC50 is 210 nM. The IC50 with Human thrombocytes (setting [5]) worked out at 19 nM.

`CN1CCc2ncc(N3CCN(C4CCN(CCC(=O)O)CC4)C3=O)nc2CC1` [36 (3), 1-[1-(2-Carboxyethyl)piperidin-4-yl]-3-(7-methyl-6,7,8,9-tetrahydro-5H-pyrazino[2,3-d]azepin-2-yl)imidazolidin-2-one trihydrochloride]: in experiment [1] (setting [4]), the EC50 was found to be 71 nM. Further, the IC50 in the experiment on Human thrombocytes (setting [5]) was 18 nM.

On to `CCN1CCc2ncc(N3CCN(c4ccc(CCC(=O)O)cc4)C3=O)nc2CC1` [36 (10), 1-[4-(2-Carboxyethyl)phenyl]-3-(7-ethyl-6,7,8,9-tetrahydro-5-pyrazino[2,3-d]azepin-2-yl)imidazolidin-2-one×1,4 HCl×2 H2 O], for which the EC50 in experiment [1] (setting [4]) is 130 nM. For the same compound, the IC50 with Human thrombocytes (setting [5]) amounted to 32 nM.

On to `CN1CCc2ncc(N3CC(=O)N([C@H]4CC[C@H](CCC(=O)O)CC4)C3=O)nc2CC1` [36 (12), 3-[trans-4-(2-Carboxyethyl)cyclohexyl]-1-(7-methyl-6,7,8,9-tetrahydro-5H-pyrazino[2,3-d]azepin-2-yl)-imidazolidine-2,4-dione hydrochloride], for which the EC50 in experiment [1] (setting [4]) was 450 nM. In addition, the IC50 in the experiment with Human thrombocytes (setting [5]) came out at 13 nM.

As to `Nc1nccc2cc(N3CCN(c4ccc(CCC(=O)O)cc4)C3=O)ccc12` [Example 1, 1-(1-Aminoisoquinolin-6-yl)-3-[4-(2-carboxyethyl)phenyl]-imidazolidin-2-one×1 water×1.2 acetic acid], in experiment [1] (setting [2]), the EC50 is more than 10000 nM. Also, the half-maximal inhibitory concentration (IC50) in the experiment on Human thrombocytes (setting [3]) came to 190 nM.

On to `COC(=O)CCc1ccc(N2CCN(c3ccc4c(c3)CCNC4)C2=O)cc1` [Example 6, 1-[4-[2-(Methoxycarbonyl)ethyl]phenyl]-3-(1,2,3,4-tetrahydro-isoquinolin-6-yl)-imidazolidin-2-one-acetate], for which the EC50 in experiment [1] (setting [2]) came out at 40 nM. The IC50 in the experiment with Human thrombocytes (setting [3]) worked out at 110 nM.

As to `O=C(O)CCc1ccc(N2CCN(c3ccc4c(c3)CCNCC4)C2=O)cc1` [Example 9, 1-[4-(2-Carboxyethyl)phenyl]-3-(2,3,4,5-tetrahydro-1H-3-benzazepin-7-yl)-imidazolidin-2-one], the EC50 in experiment [1] (setting [2]) is 190 nM. For the same compound, the concentration for half-maximal inhibition (IC50) in the experiment with Human thrombocytes (setting [3]) was found to be 85 nM.

Regarding `CN1CCc2ncc(N3CCN([C@H]4CC[C@H](CCC(=O)O)CC4)C3=O)nc2CC1` [Example 32, 1-[trans-4-(2-Carboxyethyl)cyclohexyl]-3-(7-methyl-6,7,8,9-tetrahydro-5H-pyrazino[2,3-d]azepin-2-yl)imidazolidin-2-one×1 H2 O], the EC50 in experiment [1] (setting [4]) was 100 nM. For the same compound, the half-maximal inhibitory concentration (IC50) in the experiment with Human thrombocytes (setting [5]) came to 11 nM.
